From patent US11673898B2, “Substituted inhibitors of menin-MLL and methods of use” (Kura Oncology, Inc., priority 2016, dated 2023)

Target: T1, Menin MLL 4-43 (Homo sapiens, UniProt O00255)
T1 sequence (O00255 1-610): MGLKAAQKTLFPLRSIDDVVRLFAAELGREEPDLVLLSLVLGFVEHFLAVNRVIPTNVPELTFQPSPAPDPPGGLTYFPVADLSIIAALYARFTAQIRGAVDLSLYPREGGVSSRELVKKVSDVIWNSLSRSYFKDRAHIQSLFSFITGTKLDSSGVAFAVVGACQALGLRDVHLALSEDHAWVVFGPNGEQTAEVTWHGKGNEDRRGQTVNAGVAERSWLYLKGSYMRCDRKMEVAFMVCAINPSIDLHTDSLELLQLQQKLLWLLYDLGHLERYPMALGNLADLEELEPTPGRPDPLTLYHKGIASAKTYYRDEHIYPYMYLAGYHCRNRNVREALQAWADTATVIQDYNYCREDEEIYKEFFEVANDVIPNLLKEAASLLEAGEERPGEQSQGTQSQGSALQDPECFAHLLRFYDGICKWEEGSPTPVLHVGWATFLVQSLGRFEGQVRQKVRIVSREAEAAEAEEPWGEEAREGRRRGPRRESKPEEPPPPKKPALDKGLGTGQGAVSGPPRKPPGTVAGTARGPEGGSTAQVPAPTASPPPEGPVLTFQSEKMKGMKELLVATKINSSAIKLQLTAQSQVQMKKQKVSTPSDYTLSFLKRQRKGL
Test: Fluorescence polarization (FP) competition assay of the menin-MLL interaction
Format: binding
Conditions: fluorescence polarization assay; read-out: Menin MLL 4-43 IC50

| IC50 | SMILES |
| --- | --- |
| 0.02 to 1 µM | Cc1c(CN2CCC(Nc3ncnc4sc(CC(F)(F)F)cc34)CC2)ccc2c1cc(C#N)n2CCN1CC2(CCN(S(C)(=O)=O)CC2)C1 [Compound 56] |
| 0.02 to 1 µM | Cc1c(CN2CCC(Nc3ncnc4sc(CC(F)(F)F)cc34)CC2)ccc2c1cc(C#N)n2CCN1CC2(C1)CN(S(C)(=O)=O)C2 [Compound 57] |
| 0.02 to 1 µM | Cc1c(CN2CCC(Nc3ncnc4sc(CC(F)(F)F)cc34)CC2)ccc2c1cc(C#N)n2CCN1CC2(CCN(S(C)(=O)=O)C2)C1 [Compound 58] |
| 0.02 to 1 µM | Cc1c(CN2CCC(Nc3ncnc4sc(CC(F)(F)F)cc34)CC2)ccc2c1cc(C#N)n2CCC1CCN(S(C)(=O)=O)C(C)C1 (stereo not shown) [Compound 59] |
| > 1 µM | Cc1c(CN2CCC(Nc3ncnc4sc(CC(F)(F)F)cc34)CC2)ccc2c1cc(C#N)n2CCC1(C)CCN(S(C)(=O)=O)CC1 [Compound 60] |
| 0.05 to 0.25 µM | Cc1c(CN2CCC(Nc3ncnc4sc(CC(F)(F)F)cc34)CC2)ccc2c1cc(C#N)n2CC1(N2CCN(S(C)(=O)=O)CC2)CC1 [Compound 61] |
| > 1 µM | Cc1c(CN2CCC(Nc3ncnc4sc(CC(F)(F)F)cc34)CC2)ccc2c1cc(C#N)n2CC(CO)N1CCN(S(C)(=O)=O)CC1 (stereo not shown) [Compound 62] |
| < 0.05 µM | CNS(=O)(=O)N1CCN([C@@H](C)Cn2c(C#N)cc3c(C)c(CN4CCC(Nc5ncnc6sc(CC(F)(F)F)cc56)CC4)ccc32)CC1 [Compound 64] |
| < 0.05 µM | Cc1c(CN2CCC(Nc3ncnc4sc(CC(F)(F)F)cc34)CC2)ccc2c1cc(C#N)n2C[C@H](C)N1CCN(C=O)CC1 [Compound 65] |
| 0.02 to 1 µM | CNS(=O)(=O)N1CCN([C@H](C)Cn2c(C#N)cc3c(C)c(CN4CCC(Nc5ncnc6sc(CC(F)(F)F)cc56)CC4)ccc32)CC1 [Compound 66] |
| 0.02 to 1 µM | Cc1c(CN2CCC(Nc3ncnc4sc(CC(F)(F)F)cc34)CC2)ccc2c1cc(C#N)n2C[C@@H](C)N1CCN(C=O)CC1 [Compound 67] |
| 0.05 to 0.25 µM | CNC(=O)N1CCN([C@@H](C)Cn2c(C#N)cc3c(C)c(CN4CCC(Nc5ncnc6sc(CC(F)(F)F)cc56)CC4)ccc32)CC1 [Compound 68] |
| 0.05 to 0.25 µM | Cc1c(CN2CCC(Nc3ncnc4sc(CC(F)(F)F)cc34)CC2)ccc2c1cc(C#N)n2C[C@H](C)N1CCN(S(=O)(=O)CCF)CC1 [Compound 69] |
| 0.05 to 0.25 µM | Cc1c(CN2CCC(Nc3ncnc4sc(CC(F)(F)F)cc34)CC2)ccc2c1cc(C#N)n2C[C@H](C)N1CCN(S(=O)(=O)CF)CC1 [Compound 70] |
| > 1 µM | Cc1c(CN2CCC(Nc3ncnc4sc(CC(F)(F)F)cc34)CC2)ccc2c1cc(C#N)n2C[C@@H](C)N1CCN(S(=O)(=O)CF)CC1 [Compound 71] |
| 0.05 to 0.25 µM | COC(=O)N1CCN([C@@H](C)Cn2c(C#N)cc3c(C)c(CN4CCC(Nc5ncnc6sc(CC(F)(F)F)cc56)CC4)ccc32)CC1 [Compound 72] |
| < 0.05 µM | Cc1c(CN2CCC(Nc3ncnc4sc(CC(F)(F)F)cc34)CC2)ccc2c1cc(C#N)n2C[C@H](C)N1CCN(S(=O)(=O)NC2CC2)CC1 [Compound 73] |
| 0.05 to 0.25 µM | [2H]C([2H])(C(C)N1CCN(S(C)(=O)=O)CC1)n1c(C#N)cc2c(C)c(CN3CCC(Nc4ncnc5sc(CC(F)(F)F)cc45)CC3)ccc21 (stereo not shown) [Compound 74] |
| 0.02 to 1 µM | Cc1c(CN2CCC(Nc3ncnc4sc(CC(F)(F)F)cc34)CC2)ccc2c1cc(C#N)n2CC(C)N1CCN(S(C)(=O)=O)C(C(=O)O)C1 (stereo not shown) [Compound 82] |
| 0.05 to 0.25 µM | CNC(=O)C1CCN(C(C)Cn2c(C#N)cc3c(C)c(CN4CCC(Nc5ncnc6sc(CC(F)(F)F)cc56)CC4)ccc32)CC1 (stereo not shown) [Compound 84] |
| < 0.05 µM | Cc1c(CN2CCC(Nc3ncnc4sc(CC(F)(F)F)cc34)CC2)ccc2c1cc(C#N)n2C[C@H](C)N1CCN(S(=O)(=O)CCO)CC1 [Compound 85] |
| 0.05 to 0.25 µM | Cc1c(CN2CCC(Nc3ncnc4sc(CC(F)(F)F)cc34)CC2)ccc2c1cc(C#N)n2CC(C)N1CCN(S(=O)(=O)N(C)C)CC1 (stereo not shown) [Compound 87] |
| < 0.05 µM | Cc1c(CN2CCC(Nc3ncnc4sc(CC(F)(F)F)cc34)CC2)ccc2c1cc(C#N)n2CC(C)N1CCN(S(=O)(=O)NCCN)CC1 (stereo not shown) [Compound 88] |
| < 0.05 µM | Cc1c(CN2CCC(Nc3ncnc4sc(CC(F)(F)F)cc34)CC2)ccc2c1cc(C#N)n2C[C@H](C)N1CCN(S(=O)(=O)N(C)C)CC1 [Compound 89] |
| < 0.05 µM | Cc1c(CN2CCC(Nc3ncnc4sc(CC(F)(F)F)cc34)CC2)ccc2c1cc(C#N)n2CC(C)N1CCC(S(C)(=O)=O)CC1 (stereo not shown) [Compound 90] |
| 0.05 to 0.25 µM | Cc1c(CN2CCC(Nc3ncnc4sc(CC(F)(F)F)cc34)CC2)ccc2c1cc(C#N)n2C[C@@H](C)N1C[C@@H](C)N(S(C)(=O)=O)[C@H](C)C1 [Compound 91] |

| IC50 | SMILES |
| --- | --- |
| < 0.05 µM | Cc1c(CN2CCC(Nc3ncnc4sc(CC(F)(F)F)cc34)CC2)ccc2c1cc(C#N)n2C[C@H](C)N1C[C@@H](C)C(S(C)(=O)=O)[C@H](C)C1 [Compound 92] |
| < 0.05 µM | C=CC(=O)Nc1ccc(C(C)Cn2c(C#N)cc3c(C)c(CN4CCC(Nc5ncnc6sc(CC(F)(F)F)cc56)CC4)ccc32)cn1 (stereo not shown) [Compound 93] |
| 0.05 to 0.25 µM | Cc1c(CN2CCC(Nc3ncnc4sc(CC(F)(F)F)cc34)CC2)ccc2c1cc(C#N)n2CC(C)N1C2CCC1CN(S(C)(=O)=O)C2 (stereo not shown) [Compound 94] |
| < 0.05 µM | Cc1c(CN2CCC(Nc3ncnc4sc(CC(F)(F)F)cc34)CC2)ccc2c1cc(C#N)n2C[C@H](C)N1CCN(S(=O)(=O)C2CC2)CC1 [Compound 115] |
| 0.05 to 0.25 µM | Cc1c(CN2CCC(Nc3ncnc4sc(CC(F)(F)F)cc34)CC2)ccc2c1cc(C#N)n2C[C@H](C)N1CCN(S(=O)(=O)CC(C)C)CC1 [Compound 116] |
| 0.05 to 0.25 µM | Cc1c(CN2CCC(Nc3ncnc4sc(CC(F)(F)F)cc34)CC2)ccc2c1cc(C#N)n2C[C@H](C)N1CCN(C(=O)C2CC2)CC1 [Compound 117] |
| 0.02 to 1 µM | Cc1c(CN2CCC(Nc3ncnc4sc(CC(F)(F)F)cc34)CC2)ccc2c1cc(C#N)n2C[C@H](C)N1CCN(C(=O)C(F)(F)F)CC1 [Compound 118] |
| < 0.05 µM | CCNS(=O)(=O)N1CCN([C@@H](C)Cn2c(C#N)cc3c(C)c(CN4CCC(Nc5ncnc6sc(CC(F)(F)F)cc56)CC4)ccc32)CC1 [Compound 119] |
| 0.05 to 0.25 µM | Cc1c(CN2CCC(Nc3ncnc4sc(CC(F)(F)F)cc34)CC2)ccc2c1cc(C#N)n2C[C@H](C)N1CCN(S(=O)(=O)NCC(C)C)CC1 [Compound 120] |
| 0.05 to 0.25 µM | Cc1c(CN2CCC(Nc3ncnc4sc(CC(F)(F)F)cc34)CC2)ccc2c1cc(C#N)n2C[C@H](C)N1CCN(S(=O)(=O)N2CCC2)CC1 [Compound 121] |
| 0.05 to 0.25 µM | Cc1c(CN2CCC(Nc3ncnc4sc(CC(F)(F)F)cc34)CC2)ccc2c1cc(C#N)n2C[C@H](C)N1CCN(C(=O)CC(F)(F)F)CC1 [Compound 122] |
| < 0.05 µM | COCCNS(=O)(=O)N1CCN([C@@H](C)Cn2c(C#N)cc3c(C)c(CN4CCC(Nc5ncnc6sc(CC(F)(F)F)cc56)CC4)ccc32)CC1 [Compound 123] |
| 0.05 to 0.25 µM | Cc1c(CN2CCC(Nc3ncnc4sc(CC(F)(F)F)cc34)CC2)ccc2c1cc(C#N)n2CC(C)N1C[C@@H](C)N(S(=O)(=O)CF)[C@H](C)C1 (stereo partly shown) [Compound 124] |
| 0.05 to 0.25 µM | Cc1c(CN2CCC(Nc3ncnc4sc(CC(F)(F)F)cc34)CC2)ccc2c1cc(C#N)n2C[C@H](C)N1CCN(S(=O)(=O)NCC(F)F)CC1 [Compound 125] |
| 0.05 to 0.25 µM | Cc1c(CN2CCC(Nc3ncnc4sc(CC(F)(F)F)cc34)CC2)ccc2c1cc(C#N)n2C[C@H](C)N1CCN(S(=O)(=O)CC(F)(F)F)CC1 [Compound 126] |
| 0.05 to 0.25 µM | Cc1c(CN2CCC(Nc3ncnc4sc(CC(F)(F)F)cc34)CC2)ccc2c1cc(C#N)n2C[C@H](C)N1CCN(S(=O)(=O)C2CCC2)CC1 [Compound 127] |
| 0.05 to 0.25 µM | CNS(=O)(=O)C1CCN(C(C)Cn2c(C#N)cc3c(C)c(CN4CCC(Nc5ncnc6sc(CC(F)(F)F)cc56)CC4)ccc32)CC1 (stereo not shown) [Compound 128] |
| < 0.05 µM | Cc1c(CN2CCC(Nc3ncnc4sc(CC(F)(F)F)cc34)CC2)ccc2c1cc(C#N)n2C[C@H](C)N1CCN(S(=O)(=O)NCCF)CC1 [Compound 129] |
| 0.05 to 0.25 µM | Cc1c(CN2CCC(Nc3ncnc4sc(CC(F)(F)F)cc34)CC2)ccc2c1cc(C#N)n2C[C@H](C)N1CCN(S(=O)(=O)NCC(F)(F)F)CC1 [Compound 130] |
| < 0.05 µM | Cc1c(CN2CCC(Nc3ncnc4sc(CC(F)(F)F)cc34)CC2)ccc2c1cc(C#N)n2C[C@H](C)N1CCN(S(=O)(=O)NCCO)CC1 [Compound 131] |
| 0.05 to 0.25 µM | COCC(=O)N1CCN([C@@H](C)Cn2c(C#N)cc3c(C)c(CN4CCC(Nc5ncnc6sc(CC(F)(F)F)cc56)CC4)ccc32)CC1 [Compound 133] |
| < 0.05 µM | Cc1c(CN2CCC(Nc3nc(N)nc4sc(CC(F)(F)F)cc34)CC2)ccc2c1cc(C#N)n2C[C@H](C)N1CCN(C=O)CC1 [Compound 134] |
| < 0.05 µM | Cc1nc(NC2CCN(Cc3ccc4c(cc(C#N)n4C[C@H](C)N4CCN(C=O)CC4)c3C)CC2)c2cc(CC(F)(F)F)sc2n1 [Compound 136] |
| 0.05 to 0.25 µM | Cc1nc(NC2CCN(Cc3ccc4c(cc(C#N)n4C[C@H](C)N4CCN(S(=O)(=O)CF)CC4)c3C)CC2)c2cc(CC(F)(F)F)sc2n1 [Compound 137] |
| 0.05 to 0.25 µM | Cc1c(CN2CCC(Nc3ncnc4sc(CC(F)(F)F)cc34)CC2)ccc2c1cc(C#N)n2C[C@H](C)N1CCN(S(=O)(=O)N2CC2)CC1 [Compound 140] |
| < 0.05 µM | CCCNS(=O)(=O)N1CCN([C@@H](C)Cn2c(C#N)cc3c(C)c(CN4CCC(Nc5ncnc6sc(CC(F)(F)F)cc56)CC4)ccc32)CC1 [Compound 141] |
